Patent publication US9474790B2, “Stable, protracted GLP-1/glucagon receptor co-agonists for medical use” (Novo Nordisk A/S, priority 2013, dated 2016)
Numbered stars: 1 amine (or outer) side, 2 acyl side, 3 side chain; on linkers, the order of the positions; unused ones are H or OH. Bridge positions count the residues as written; N and C are the ends. Square brackets hold non-standard residues; d marks the D form. Side chains are listed from the residue outwards. Peptide text beside a SMILES is read from it. I, II: the chains in the order shown. * marks the point of attachment. C18 diacid = O=C(O)CCCCCCCCCCCCCCCCC(=O)*; γGlu = O=C(O)[C@H](CCC(=O)[*:2])N[*:1]; Ac4c = NC1(C(=O)O)CCC1; AEEA = NCCOCCOCC(=O)O; Aib = CC(C)(N)C(=O)O

target: T1, human glucagon receptor (Homo sapiens, UniProt P47871); experiment: Glucagon receptor potency, CRE luciferase reporter gene assay in BHK cells; format: cell-based; settings: BHK cells expressing human glucagon receptor, read-out: EC50 GlucR
T1 construct: expressed in transfected cells; host or cells: BHK cells (parent BHK570, CRE luciferase clone BHK/KZ10-20-48), clone pLJ6'-4-25
T1 sequence (P47871 26-477): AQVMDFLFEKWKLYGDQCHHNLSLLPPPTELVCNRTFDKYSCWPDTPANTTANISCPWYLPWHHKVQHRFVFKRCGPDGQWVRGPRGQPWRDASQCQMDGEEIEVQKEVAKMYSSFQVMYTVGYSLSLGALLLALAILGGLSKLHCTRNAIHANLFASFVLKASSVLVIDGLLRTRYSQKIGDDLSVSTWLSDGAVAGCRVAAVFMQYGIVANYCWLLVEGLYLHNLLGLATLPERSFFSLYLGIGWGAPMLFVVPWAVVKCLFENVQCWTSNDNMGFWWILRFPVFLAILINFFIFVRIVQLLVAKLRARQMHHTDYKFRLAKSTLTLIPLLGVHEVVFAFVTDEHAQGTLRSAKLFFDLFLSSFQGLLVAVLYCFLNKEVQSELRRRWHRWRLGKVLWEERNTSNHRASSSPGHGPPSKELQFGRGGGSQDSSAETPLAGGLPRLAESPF
Outline: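 Stably transfected BHK cells (BHK570 background) expressing human glucagon receptor with CRE-firefly luciferase reporter, 5×10EE3 cells/well in DMEM/HEPES with 2% ovalbumin and 0.2% Pluronic F-68. Compounds 1×10EE-13 to 1×10EE-6 M final, 3 h at 37 °C; luminescence read, EC50 from four-parameter fit, in pM.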

| EC50 | Compound |
| --- | --- |
| 2 pM | CC(C)C[C@H](NC(=O)[C@H](Cc1ccc(O)cc1)NC(=O)[C@H](CCCCN)NC(=O)[C@H](CO)NC(=O)[C@H](CC(C)C)NC(=O)[C@H](CC(=O)O)NC(=O)[C@H](CO)NC(=O)[C@@H](NC(=O)[C@H](Cc1ccccc1)NC(=O)[C@@H](NC(=O)CNC(=O)[C@H](Cc1c[nH]cn1)NC(=O)C(C)(C)NC(=O)[C@@H](N)Cc1c[nH]cn1)[C@@H](C)O)[C@@H](C)O)C(=O)N[C@@H](CCC(=O)O)C(=O)N[C@@H](CO)C(=O)N[C@@H](CCCNC(=N)N)C(=O)N[C@@H](CCCNC(=N)N)C(=O)N[C@@H](C)C(=O)N[C@@H](CCCNC(=N)N)C(=O)N[C@@H](CC(=O)O)C(=O)N[C@@H](Cc1ccccc1)C(=O)N[C@H](C(=O)N[C@@H](CCC(N)=O)C(=O)N[C@@H](Cc1c[nH]c2ccccc12)C(=O)N[C@@H](CC(C)C)C(=O)N[C@@H](CC(C)C)C(=O)N[C@@H](CCCCNC(=O)CNC(=O)[C@H](CO)NC(=O)[C@H](CCC(=O)O)NC(=O)CNC(=O)[C@H](CO)NC(=O)CC[C@H](NC(=O)CC[C@H](NC(=O)CCCCCCCCCCCCCCCCC(=O)O)C(=O)O)C(=O)O)C(=O)N[C@H](C(N)=O)[C@@H](C)O)C(C)C [Example 37, N^ε28-[2-[[(2S)-2-[[(2S)-4-carboxy-2-[[2-[[(2S)-2-[[(4S)-4-carboxy-4-[[(4S)-4-carboxy-4-(17-carboxyheptadecanoylamino)butanoyl]amino]butanoyl]amino]-3-hydroxypropanoyl]amino]acetyl]amino]butanoyl]amino]-3-hydroxypropanoyl]amino]acetyl]-[Aib2,His3,Leu10,Glu15, Arg20,Leu27,Lys28]-Glucagon amide] (I: H-H[Aib]HGTFTSDLSKYLESRRARDFVQWLLKT-NH2 / II: {C18 diacid-γGlu-γGlu}-SGESG; amide I:28-II:C; N-terminus assumed) |
| 16 pM | CC(C)C[C@H](NC(=O)[C@H](CC(=O)O)NC(=O)[C@H](CC(C)C)NC(=O)[C@H](Cc1ccc(O)cc1)NC(=O)[C@H](CCCNC(=N)N)NC(=O)[C@H](CO)NC(=O)[C@H](CC(C)C)NC(=O)[C@H](CC(=O)O)NC(=O)[C@H](CO)NC(=O)[C@@H](NC(=O)[C@H](Cc1ccccc1)NC(=O)[C@@H](NC(=O)CNC(=O)[C@H](CCC(N)=O)NC(=O)C1(NC(=O)[C@@H](N)Cc2c[nH]cn2)CCC1)[C@@H](C)O)[C@@H](C)O)C(=O)N[C@@H](CCCNC(=N)N)C(=O)N[C@@H](CCCNC(=N)N)C(=O)N[C@@H](C)C(=O)N[C@@H](CCCNC(=N)N)C(=O)N[C@@H](CC(=O)O)C(=O)N[C@@H](Cc1ccccc1)C(=O)N[C@H](C(=O)N[C@@H](CCC(N)=O)C(=O)N[C@@H](Cc1c[nH]c2ccccc12)C(=O)N[C@@H](CC(C)C)C(=O)N[C@@H](CC(C)C)C(=O)N[C@@H](CCCCNC(=O)CC[C@H](NC(=O)CC[C@H](NC(=O)COCCOCCNC(=O)COCCOCCNC(=O)CC[C@H](NC(=O)CC[C@H](NC(=O)CCCCCCCCCCCCCCCCC(=O)O)C(=O)O)C(=O)O)C(=O)O)C(=O)O)C(=O)N[C@H](C(N)=O)[C@@H](C)O)C(C)C [Example 46, N^ε28-[(4S)-4-carboxy-4-[[(4S)-4-carboxy-4-[[2-[2-[2-[[2-[2-[2-[[(4S)-4-carboxy-4-[[(4S)-4-carboxy-4-(17-carboxyheptadecanoylamino)butanoyl]amino]butanoyl]amino]ethoxy]ethoxy]acetyl]amino]ethoxy]ethoxy]acetyl]amino]butanoyl]amino]butanoyl]-[Acb2,Leu10,Arg12,Leu16,Arg20,Leu27,Lys28]-Glucagon amide] (H-H[Ac4c]QGTFTSDLSRYLDLRRARDFVQWLLK([γGlu-γGlu-AEEA-AEEA-γGlu-γGlu-C18 diacid])T-NH2; N-terminus assumed) |
| 2.9 pM | CC(C)C[C@H](NC(=O)[C@H](Cc1c[nH]c2ccccc12)NC(=O)[C@H](C)NC(=O)[C@@H](NC(=O)[C@H](Cc1ccccc1)NC(=O)[C@H](CCC(=O)O)NC(=O)[C@H](CCCNC(=N)N)NC(=O)[C@H](C)NC(=O)[C@H](CCCNC(=N)N)NC(=O)[C@H](CCCNC(=N)N)NC(=O)[C@H](CO)NC(=O)[C@H](CCC(=O)O)NC(=O)[C@H](CC(C)C)NC(=O)[C@H](Cc1ccc(O)cc1)NC(=O)[C@H](CCCCN)NC(=O)[C@H](CO)NC(=O)[C@H](CC(C)C)NC(=O)[C@H](CC(=O)O)NC(=O)[C@H](CO)NC(=O)[C@@H](NC(=O)[C@H](Cc1ccccc1)NC(=O)[C@@H](NC(=O)CNC(=O)[C@H](Cc1c[nH]cn1)NC(=O)C(C)(C)NC(=O)[C@@H](N)Cc1c[nH]cn1)[C@@H](C)O)[C@@H](C)O)C(C)C)C(=O)N[C@@H](CC(C)C)C(=O)N[C@@H](CCCCNC(=O)CC[C@H](NC(=O)COCCOCCNC(=O)COCCOCCNC(=O)CC[C@H](NC(=O)CC[C@H](NC(=O)CCCCCCCCCCCCCCCCC(=O)O)C(=O)O)C(=O)O)C(=O)O)C(=O)N[C@H](C(N)=O)[C@@H](C)O [Example 31, N^ε28-[(4S)-4-carboxy-4-[[2-[2-[2-[[2-[2-[2-[[(4S)-4-carboxy-4-[[(4S)-4-carboxy-4-(17-carboxyheptadecanoylamino)butanoyl]amino]butanoyl]amino]ethoxy]ethoxy]acetyl]amino]ethoxy]ethoxy]acetyl]amino]butanoyl]-[Aib2,His3,Leu10,Glu15,Arg20,Glu21,Ala24,Leu27, Lys28]-Glucagon amide] (H-H[Aib]HGTFTSDLSKYLESRRAREFVAWLLK([γGlu-AEEA-AEEA-γGlu-γGlu-C18 diacid])T-NH2; N-terminus assumed) |
| 10 pM | CC(C)C[C@H](NC(=O)[C@H](Cc1ccc(O)cc1)NC(=O)[C@H](CCCCN)NC(=O)[C@H](CO)NC(=O)[C@H](CC(C)C)NC(=O)[C@H](CC(=O)O)NC(=O)[C@H](CO)NC(=O)[C@@H](NC(=O)[C@H](Cc1ccccc1)NC(=O)[C@@H](NC(=O)CNC(=O)[C@H](CCC(N)=O)NC(=O)C1(NC(=O)[C@@H](N)Cc2c[nH]cn2)CCC1)[C@@H](C)O)[C@@H](C)O)C(=O)N[C@@H](CCC(=O)O)C(=O)N[C@@H](CO)C(=O)N[C@@H](CCCNC(=N)N)C(=O)N[C@@H](CCCNC(=N)N)C(=O)N[C@@H](C)C(=O)N[C@@H](CCCNC(=N)N)C(=O)N[C@@H](CCC(=O)O)C(=O)N[C@@H](Cc1ccccc1)C(=O)N[C@H](C(=O)N[C@@H](CCC(N)=O)C(=O)N[C@@H](Cc1c[nH]c2ccccc12)C(=O)N[C@@H](CC(C)C)C(=O)N[C@@H](CC(C)C)C(=O)N[C@@H](CCCCNC(=O)CC[C@H](NC(=O)CC[C@H](NC(=O)COCCOCCNC(=O)COCCOCCNC(=O)CC[C@H](NC(=O)CCCCCCCCCCCCCCCCC(=O)O)C(=O)O)C(=O)O)C(=O)O)C(=O)N[C@H](C(N)=O)[C@@H](C)O)C(C)C [Example 44, N^ε28-[(4S)-4-carboxy-4-[[(4S)-4-carboxy-4-[[2-[2-[2-[[2-[2-[2-[[(4S)-4-carboxy-4-(17-carboxyheptadecanoylamino)butanoyl]amino]ethoxy]ethoxy]acetyl]amino]ethoxy]ethoxy]acetyl]amino]butanoyl]amino]butanoyl]-[Acb2,Leu10,Glu15,Arg20,Glu21,Leu27,Lys28]-Glucagon amide] (H-H[Ac4c]QGTFTSDLSKYLESRRAREFVQWLLK([γGlu-γGlu-AEEA-AEEA-γGlu-C18 diacid])T-NH2; N-terminus assumed) |
